This note sets out measurements from BindingDB's records for PubMed 2795135 (Stanford University, 1989).

Several values for one entry are separate records, joined by “and”; a condition that tells them apart may be missing. Equal values may be shown once.

For assay [1], the target named is 5-hydroxytryptamine receptor 2A (Rattus norvegicus, UniProt P14842).
In assay [2] the target is 5-hydroxytryptamine receptor 2B (Bos taurus, UniProt Q8MI09).
Chain of 5-hydroxytryptamine receptor 2B (Q8MI09 whole entry): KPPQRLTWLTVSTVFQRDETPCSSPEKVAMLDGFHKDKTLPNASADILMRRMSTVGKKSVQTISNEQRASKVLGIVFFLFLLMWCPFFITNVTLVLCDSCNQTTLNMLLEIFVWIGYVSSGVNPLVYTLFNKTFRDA

Chain of 5-hydroxytryptamine receptor 2A (P14842 whole entry): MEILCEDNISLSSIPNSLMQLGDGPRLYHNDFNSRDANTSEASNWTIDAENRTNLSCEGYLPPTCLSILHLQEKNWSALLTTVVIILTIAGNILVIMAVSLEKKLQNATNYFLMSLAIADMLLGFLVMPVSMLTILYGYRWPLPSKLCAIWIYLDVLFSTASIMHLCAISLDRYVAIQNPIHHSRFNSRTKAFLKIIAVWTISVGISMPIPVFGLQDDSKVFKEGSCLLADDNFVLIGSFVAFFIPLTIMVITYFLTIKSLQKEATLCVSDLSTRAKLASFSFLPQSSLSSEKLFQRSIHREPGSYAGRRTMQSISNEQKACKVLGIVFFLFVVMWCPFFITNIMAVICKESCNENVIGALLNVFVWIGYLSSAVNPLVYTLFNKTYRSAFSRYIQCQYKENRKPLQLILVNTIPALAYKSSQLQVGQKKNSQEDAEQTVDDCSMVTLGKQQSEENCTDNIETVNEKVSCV

As for `CCCN(CCC)C1CCc2cccc(O)c2C1` (stereo not drawn), the Ki in assay [1] worked out at 700 nM; in assay [2] it was 5400 nM.
The like results for `CN1C2CCC1CC(OC(=O)c1c[nH]c3ccccc13)C2` (stereo not drawn) were, in that order, over 10000 nM and 2600 nM.
Regarding `CCc1cc(OC)c(CC(C)N)cc1OC` (stereo not drawn), affinity in assay [2] was put at a Ki of 80 nM.
For `NCCc1c[nH]c2ccccc12` [1H-indole-3-ethanamine], the inhibition constant (Ki) in assay [1] was determined as 11 nM; in assay [2] it was 1300 nM.
`CN(C)CCc1c[nH]c2ccccc12` [2-(1H-indol-3-yl)-N,N-dimethylethanamine]: the inhibitory constant (Ki) stood at 42 nM in assay [1] and 550 nM in assay [2].
Take `c1ccc2nc(N3CCNCC3)ccc2c1` [2-Piperazin-1-yl-quinoline (Quipazine)]: the Ki in assay [1] came to 5 nM; in assay [2], 460 nM.
Regarding `COc1cc(CCN)cc(OC)c1OC` [3,4,5-trimethoxyphenylethylamine], the Ki in assay [1] is 150 nM; in assay [2] it was over 10000 nM.
Consider `COc1ccc2[nH]cc(CCN(C)C)c2c1` [3-(2-DIMETHYLAMINOETHYL)-5-METHOXYINDOLE], for which the Ki in assay [1] amounted to 14 nM; in assay [2], 1300 nM.
In assay [2], `O=C(c1ccc(F)cc1)C1CCN(CCn2c(=O)[nH]c3ccccc3c2=O)CC1` [3-(2-{4-[(4-fluorophenyl)carbonyl]piperidin-1-yl}ethyl)-1,2,3,4-tetrahydroquinazoline-2,4-dione] came in with a Ki of 2.4 nM.
Consider `CN(C)CCc1c[nH]c2cccc(O)c12` [4-hydroxy-N,N-dimethyltryptamine], for which the Ki in assay [1] came out at 12 nM; in assay [2] it was 450 nM.
Consider `COc1ccc2[nH]cc(C3=CCNCC3)c2c1` [5-Methoxy-3-(1,2,3,6-tetrahydro-pyridin-4-yl)-1H-indole(RU-24969)], for which, in assay [2], the inhibition constant Ki came to 1200 nM.
With `CCN(CC)C(=O)[C@@H]1C=C2c3cccc4[nH]cc(c34)C[C@H]2N(C)C1` [(4R,7R)-N,N-diethyl-6-methyl-6,11-diazatetracyclo[7.6.1.0^{2,7}.0^{12,16}]hexadeca-1(16),2,9,12,14-pentaene-4-carboxamide], the affinity in assay [2] corresponds to a Ki of 11 nM.
As to `COc1cc(CC(C)N)c(OC)cc1C` (stereo not drawn) [(+/-)2-(2,5-Dimethoxy-4-methyl-phenyl)-1-methyl-ethylamine], the inhibitory constant (Ki) in assay [1] was 4.8 nM; in assay [2] it was 400 nM.
For `CN(C)CCCSc1ccccc1NC(=O)/C=C/c1ccccc1` [CINANSERIN] the same measures were 7 nM and 5 nM.
In turn, `CN1C[C@@H](NS(=O)(=O)N(C)C)C[C@@H]2c3cccc4c3c(cn4C)C[C@H]21` [MESULERGINE] had a Ki in assay [2] of 8 nM.
On to `CN(C)CCCN1c2ccccc2Sc2ccc(Cl)cc21` [[3-(2-Chloro-phenothiazin-10-yl)-propyl]-dimethyl-amine(Chlorpromazine)], for which, in assay [2], the Ki was found to be 6 nM.
For `NCCc1c[nH]c2ccc(C(N)=O)cc12` [[3H]-5-carboxamidotryptamine], the Ki in assay [2] was over 10000 nM.
As to `COc1cc(CC(C)N)c(OC)cc1I` (stereo not drawn) [[125I]2,5-dimethoxy-4-iodoamphetamine], the Ki in assay [1] was 0.89 nM and 0.53 nM; in assay [2], 100 nM and 55 nM.
In the case of `Clc1cccc(N2CCNCC2)c1` [mCPP], the Ki in assay [1] was 21 nM; in assay [2], 960 nM.
As to `CN(C)CCc1c[nH]c2cccc(OP(=O)(O)O)c12` [psilocybin], the Ki in assay [1] stood at 13 nM; in assay [2], 600 nM.

By Ki is commonly meant a dissociation constant, usually derived from enzyme kinetics or from competition with a known ligand. A low value points to tighter binding.
